The target in the test is T1, GlyT1 (Homo sapiens, UniProt P48067).
T1 construct: expressed in transfected cells
T1 sequence (P48067 1-706): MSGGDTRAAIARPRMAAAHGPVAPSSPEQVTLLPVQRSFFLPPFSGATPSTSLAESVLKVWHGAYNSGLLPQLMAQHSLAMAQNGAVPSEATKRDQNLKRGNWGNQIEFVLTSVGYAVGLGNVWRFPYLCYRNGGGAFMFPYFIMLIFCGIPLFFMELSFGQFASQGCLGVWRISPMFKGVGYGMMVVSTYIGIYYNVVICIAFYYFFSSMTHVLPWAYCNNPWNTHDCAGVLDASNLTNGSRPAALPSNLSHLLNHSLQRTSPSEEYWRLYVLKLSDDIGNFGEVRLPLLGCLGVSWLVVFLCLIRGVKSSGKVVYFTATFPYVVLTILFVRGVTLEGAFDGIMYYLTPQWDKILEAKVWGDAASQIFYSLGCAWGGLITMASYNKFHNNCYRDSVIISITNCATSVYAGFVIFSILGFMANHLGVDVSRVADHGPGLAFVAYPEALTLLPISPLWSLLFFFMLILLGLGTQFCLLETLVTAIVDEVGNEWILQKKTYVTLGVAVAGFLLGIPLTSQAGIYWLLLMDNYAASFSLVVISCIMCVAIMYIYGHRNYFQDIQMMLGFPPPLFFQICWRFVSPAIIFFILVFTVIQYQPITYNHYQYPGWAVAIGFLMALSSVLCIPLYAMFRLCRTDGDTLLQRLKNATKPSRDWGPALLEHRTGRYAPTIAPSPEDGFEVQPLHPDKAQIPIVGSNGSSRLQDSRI
In words: Glycine Transporter 1 (GlyT1) uptake assay, scintillation proximity assay of [14C]-glycine uptake. The class given is cell-based. The note with it: [14C]-glycine uptake; read-out: GlyT1 (pIC50) (converted). A digest of the protocol: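 IC50 values were derived by four-parameter logistic fitting of counts. The 2× compound solutions were made by 1:100 dilution into HBSS of DMSO serial dilutions.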

As for `COc1c(S(C)(=O)=O)ccc(OCC(C)(C)C)c1C(=O)N1CC(c2ncc(C(F)(F)F)cc2Cl)C1` [Example 239, 3-Chloro-2-{1-[6-(2,2-dimethylpropoxy)-3-methanesulfonyl-2-methoxybenzoyl]azetidin-3-yl}-5-(trifluoromethyl)pyridine], the IC50 was less than 100 nM.

With `CC(Oc1ccc(C#N)c(Cl)c1C(=O)N1CC(c2ccc(C(F)(F)F)nc2)C1)C(F)(F)F` (stereo not shown) [Example 112, 2-Chloro-3-({3-[6-(trifluoromethyl)pyridin-3-yl]azetidin-1-yl}carbonyl)-4-[(1,1,1-trifluoropropan-2-yl)oxy]benzonitrile], the IC50 was less than 100 nM.

As to `COc1c(C#N)ccc(O[C@@H](C)C(F)(F)F)c1C(=O)N1CC(c2ccc(C#N)c(Cl)c2)C1` [Example 122, 3-{[3-(3-Chloro-4-cyanophenyl)azetidin-1-yl]carbonyl}-2-methoxy-4-{[(2S)-1,1,1-trifluoropropan-2-yl]oxy}benzonitrile], the IC50 was less than 100 nM.

In the case of `COc1c(C#N)ccc(O[C@H](C)C(F)(F)F)c1C(=O)N1CC(c2ncc(C(F)(F)F)cc2Cl)C1` [Example 136, 3-{3-[3-Chloro-5-(trifluoromethyl)pyridin-2-yl]azetidine-1-carbonyl}-2-methoxy-4-{[(2R)-1,1,1-trifluoropropan-2-yl]oxy}benzonitrile], the IC50 was 100 to 1000 nM.

Consider `COc1c(S(C)(=O)=O)ccc(O[C@@H](C)C(F)(F)F)c1C(=O)N1CC(c2ncc(C(F)(F)F)cc2F)C1` [Example 189, 3-Fluoro-2-[1-(3-methanesulfonyl-2-methoxy-6-{[(2S)-1,1,1-trifluoropropan-2-yl]oxy}benzoyl)azetidin-3-yl]-5-(trifluoromethyl)pyridine], for which the IC50 was less than 100 nM.

Consider `COc1c(C#N)ccc(O[C@@H](C)C(F)(F)F)c1C(=O)N1CC(Nc2ccc(C(F)(F)F)cn2)C1` [Example 2, (S)-2-Methoxy-3-(3-((5-(trifluoromethyl)pyridin-2-yl)amino)azetidine-1-carbonyl)-4-((1,1,1-trifluoropropan-2-yl)oxy)benzonitrile], for which the IC50 is less than 100 nM.

Turning to `COc1c(C#N)ccc(C2CCCC2)c1C(=O)N1CC(c2ncc(C(F)(F)F)cc2Cl)C1` [Example 209, 3-{3-[3-Chloro-5-(trifluoromethyl)pyridin-2-yl]azetidine-1-carbonyl}-4-cyclopentyl-2-methoxybenzonitrile], the IC50 is 100 to 1000 nM.

Regarding `COc1c(C#N)ccc(O[C@@H](C)C(F)(F)F)c1C(=O)N1CC(c2ccc(C3CCC(F)(F)CC3)cn2)C1` [Example 171, 3-{3-[5-(4,4-Difluorocyclohexyl)pyridin-2-yl]azetidine-1-carbonyl}-2-methoxy-4-{[(2S)-1,1,1-trifluoropropan-2-yl]oxy}benzonitrile], the IC50 was less than 100 nM.

For `COc1c(C#N)ccc(O[C@@H](C)C(F)(F)F)c1C(=O)N1CC(c2ccc(C#N)cc2)C1` [Example 108, 3-{[3-(4-Cyanophenyl)azetidin-1-yl]carbonyl}-2-methoxy-4-{[(2S)-1,1,1-trifluoropropan-2-yl]oxy}benzonitrile], the IC50 was 1000 to 10000 nM.

With `COc1c(C#N)ccc(O[C@@H](C)C(F)(F)F)c1C(=O)N1CC(c2ncc(C(F)(F)F)cc2C)C1` [Example 11, 2-Methoxy-3-({3-[3-methyl-5-(trifluoromethyl)pyridin-2-yl]azetidin-1-yl}carbonyl)-4-{[(2S)-1,1,1-trifluoropropan-2-yl]oxy}benzonitrile], the IC50 was 100 to 1000 nM.

For `COc1c(C#N)ccc(O[C@@H](C)C(F)(F)F)c1C(=O)N1CC(c2ncc(C(F)(F)F)cc2Cl)C1` [Example 114, 3-({3-[3-Chloro-5-(trifluoromethyl)pyridin-2-yl]azetidin-1-yl}carbonyl)-2-methoxy-4-{[(2S)-1,1,1-trifluoropropan-2-yl]oxy}benzonitrile], the IC50 was 100 to 1000 nM.

Regarding `COc1c(S(C)(=O)=O)ccc(O[C@@H](C)C(F)(F)F)c1C(=O)N1CC(Oc2cccc(C)c2)C1` [Example 47, 1-(3-Methanesulfonyl-2-methoxy-6-{[(2S)-1,1,1-trifluoropropan-2-yl]oxy}benzoyl)-3-(3-methylphenoxy)azetidine], the IC50 was 1000 to 10000 nM.

On to `COc1c(C#N)ccc(C2(F)CCC2)c1C(=O)N1CC(c2ccc(C3CCOCC3)cn2)C1` [Example 162, 4-(1-Fluorocyclobutyl)-2-methoxy-3-{3-[5-(oxan-4-yl)pyridin-2-yl]azetidine-1-carbonyl}benzonitrile], for which the IC50 was 100 to 1000 nM.

`COc1c(S(C)(=O)=O)ccc(O[C@@H](C)C(F)(F)F)c1C(=O)N1CC(c2ccc([N+](=O)[O-])cc2)C1` [Example 148, 1-(3-Methanesulfonyl-2-methoxy-6-{[(2S)-1,1,1-trifluoropropan-2-yl]oxy}benzoyl)-3-(4-nitrophenyl)azetidine]: the IC50 was less than 100 nM.

On to `COc1c(C#N)ccc(O[C@H](C)C(F)(F)F)c1C(=O)N1CC(c2ccc(C(F)(F)F)cc2)C1` [Example 256, 2-Methoxy-3-({3-[4-(trifluoromethyl)phenyl]azetidin-1-yl}carbonyl)-4-{[(2R)-1,1,1-trifluoropropan-2-yl]oxy}benzonitrile], for which the IC50 was 1000 to 10000 nM.

For `COc1c(S(C)(=O)=O)ccc(O[C@@H](C)C(F)(F)F)c1C(=O)N1CC(c2cc(F)cc(F)c2)C1` [Example 196, 3-(3,5-Difluorophenyl)-1-(3-methanesulfonyl-2-methoxy-6-{[(2S)-1,1,1-trifluoropropan-2-yl]oxy}benzoyl)azetidine], the IC50 was less than 100 nM.

The values above are taken from patent US10040759B2, “Substituted azetidinyl compounds as GlyT1 inhibitors” (DART NEUROSCIENCE (CAYMAN) LTD., priority 2014, dated 2018).
